Assay results published in patent publication US10550143B2, “C,O-spiro aryl glycoside compounds, preparation therefor and use thereof” (SHANGHAI INSTITUTE OF MATERIA MEDICA, CHINESE ACADEMY OF …, priority 2015, dated 2020).

Biological target: T1, human sodium-glucose cotransporter 2 (SGLT2) (Homo sapiens, UniProt P31639)
T1 construct: expressed in transfected cells; host or cells: NIH3T3 (mouse fibroblast) cells expressing hSGLT2
T1 sequence (P31639 1-672): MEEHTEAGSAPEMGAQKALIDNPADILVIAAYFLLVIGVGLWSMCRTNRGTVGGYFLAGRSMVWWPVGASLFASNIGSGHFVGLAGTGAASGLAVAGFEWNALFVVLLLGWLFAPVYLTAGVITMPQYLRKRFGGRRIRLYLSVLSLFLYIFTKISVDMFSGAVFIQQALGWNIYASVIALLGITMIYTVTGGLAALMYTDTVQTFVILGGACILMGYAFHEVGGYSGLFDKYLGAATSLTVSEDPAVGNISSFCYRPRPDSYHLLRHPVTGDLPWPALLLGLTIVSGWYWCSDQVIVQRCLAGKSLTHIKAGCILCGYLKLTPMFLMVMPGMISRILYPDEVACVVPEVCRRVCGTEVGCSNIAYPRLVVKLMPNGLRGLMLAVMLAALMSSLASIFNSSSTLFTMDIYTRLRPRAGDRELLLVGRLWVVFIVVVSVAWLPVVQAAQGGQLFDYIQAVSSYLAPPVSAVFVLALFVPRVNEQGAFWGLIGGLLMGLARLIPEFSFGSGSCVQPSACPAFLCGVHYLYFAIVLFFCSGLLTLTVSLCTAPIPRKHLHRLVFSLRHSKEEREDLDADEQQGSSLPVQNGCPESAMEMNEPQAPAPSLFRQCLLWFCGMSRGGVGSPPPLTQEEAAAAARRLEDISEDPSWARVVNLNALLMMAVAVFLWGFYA
Experiment: In vitro SGLT2 inhibition, methyl-α-D-[U-14C]glucopyranoside uptake in NIH3T3-hSGLT2 cells
Assay type: cell-based
Conditions: for inhibition at 0.01 µM: SGLT2, 10 nM, read-out: % Inhibition rate ± SD 10 nM; for inhibition at 0.1 µM: SGLT2, 100 nM, read-out: % Inhibition rate ± SD 100 nM
Protocol: Inhibition of the compounds of formula I against human sodium-glucose cotransporter 2 (SGLT2) was determined experimentally and the experimental procedures were carried out as reference^1.
Methyl-α-D-[U-^14C] glucopyranoside (Perkin Elmer) Dimethylsulfoxide (Genebase, Prod No: 0231)
(1) Primary screening of hSGLT2 are conducted with two concentrations, 100 nM and 10 nM;
SGLT2 transports D-glucose at 1:1 sodium-glucose ratio, glucose is replaced by the non-metabolic and isotope labeled methyl-aD-[U-^14C] glucopyranoside and methyl-aD-glucopyranoside, and the amount of isotope transferred into the cells was determined.
1) 0.2% gelatin in a 96-well plate was put in a 37° C. incubator for further use;
2) NIH3T3-hSGLT2 cells were injected into 96-well plates, 40000/well, and 100 μL culture medium per well:
3) the fluid was changed in the next day, and sodium butyrate was added into medium at a final concentration of 2 mM;
4) wash the cells with 100 μL of KRH—Na^+ for 3 times and incubate cells with 50 μL for 30 minutes. Cells were changed to 50 μL of compound in KRH—Na^+, uptake buffer (KRH—Na^+ and methyl-α-D-[U-^14C]glucopyranoside and ⅙ mM methyl-α-D-glucopyranoside at 10 μL per well) was added; KRH-acetylcholine solution was used as background control instead of KRH-Na^+
5) washed with 100 μL PBS for 3 times, dried, 50 μL lysate and 150 μL scintillation fluid were added, the membrane was covered and flattened, shaken on a shaker to mix thoroughly, centrifuged at 1500 rpm at 4° C. for 3 min, taken out and read;
6) the results were analyses.
The inhibition rate (% Inhibiton) of each sample at each concentration was calculated by dividing the value of the compound well value minus the background value by the value of the DMSO control well value minus the background value.
IC50 is calculated as follows: […]
The y value is the activity or inhibition percent, the x value is the concentration of the corresponding compound, top (the maximum y value of the curve), bottom (the minimum y value of the curve).

Compound	inhibition at 0.01 µM	inhibition at 0.1 µM
CCCc1ccc(Cc2ccc3c(c2)[C@]2(OC3)O[C@H](C)[C@@H](O)[C@H](O)[C@H]2O)s1 [Example A9, (1S,3′R,4′S,5′S,6′R)-6′-methyl-6-((5-propylthienyl)-2-methyl)-3′,4′,5′,6′-tetrahydro-3H-spiro [isobenzofuran-1,2′-pyran]-3′,4′,5′-triol]	34.7 ± 24%	52.8 ± 15.5%
CC(=O)c1ccc(Cc2cc3c(cc2Cl)CO[C@]32O[C@H](C)[C@@H](O)[C@H](O)[C@H]2O)s1 [Example A117, 1-(5-(((1S,3′R,4′S,5′S,6′R)-5-chloro-3′,4′,5′-trihydroxy-6′-methyl-3′,4′,5′,6′-tetrahydro-3H-spiro[isobenzofuran-1,2′-pyran]-6-yl)methyl)thiophene-2-yl)ethanone]	30.1 ± 1%	22.6 ± 8.3%
C#Cc1cc2c(cc1Cc1ccc(CC)s1)[C@]1(OC2)O[C@H](C)[C@@H](O)[C@H](O)[C@H]1O [Example A85, (1S,3′R,4′S,5′S,6′R)-5-ethynyl-6′-methyl-6-((5-ethylthienyl)-2-methyl)-3′,4′,5′,6′-tetrahydro-3H-spiro[isobenzofuran-1,2′-pyran]-3′,4′,5′-triol]	33.9 ± 14.1%	50.4 ± 16.9%
C[C@H]1O[C@]2(OCc3ccc(Cc4ccc(-c5ccc(F)cc5)s4)cc32)[C@H](O)[C@@H](O)[C@@H]1O [Example A11, (1S,3′R,4′S,5′S,6′R)-6′-methyl-6-((5-(4-fluorophenyl)thienyl)-2-methyl)-3′,4′,5′,6′-tetrahydro-3H-spiro[isobenzofuran-1,2′-pyran]-3′,4′,5′-triol]	29.4 ± 11.1%	31.4 ± 8.1%
CCOCCc1ccc(Cc2cc3c(cc2Cl)CO[C@]32O[C@H](C)[C@@H](O)[C@H](O)[C@H]2O)s1 [Example A115, (1S,3′R,4′S,5′S,6′R)-5-chloro-6-((5-(2-ethoxyethyl)thiophene-2-yl)methyl)-6′-methyl-3′,4′,5′,6′-tetrahydro-3H-spiro[isobenzofuran-1,2′-pyran]-3′,4′,5′-triol]	78.1 ± 5.1%	53.8 ± 5.5%
C[C@H]1O[C@]2(OCc3ccc(Cc4cc5ccccc5o4)cc32)[C@H](O)[C@@H](O)[C@@H]1O [Example A16, (1S,3′R,4′S,5′S,6′R)-6′-methyl-6-(benzo[b]furan-2-methyl)-3′,4′,5′,6′-tetrahydro-3H-spiro [isobenzofuran-1,2′-pyran]-3′,4′,5′-triol]	27.5 ± 19.6%	39 ± 16.1%
C[C@H]1O[C@]2(OCc3cc(Cl)c(Cc4ccc(C(F)(F)F)cc4)cc32)[C@H](O)[C@@H](O)[C@@H]1O [Example A110]	93 ± 5.9%	71.5 ± 7.2%
C[C@H]1O[C@]2(OCc3cc(Cl)c(Cc4ccc5occc5c4)cc32)[C@H](O)[C@@H](O)[C@@H]1O [Example A106, (1S,3′R,4′S,5′S,6′R)-6-(benzofuran-5-ylmethyl)-5-chloro-6′-methyl-3′,4′,5′,6′-tetrahydro-3H-spiro[isobenzofuran-1,2′-pyran]-3′,4′,5′-triol]	4.8 ± 3.9%	50.8 ± 7.5%
C[C@H]1O[C@]2(OCc3cc(Cl)c(Cc4ccc(-c5ccccn5)s4)cc32)[C@H](O)[C@@H](O)[C@@H]1O [Example A33]	25 ± 9.3%	20.7 ± 7.5%
C[C@H]1O[C@]2(OCc3cc(F)c(Cc4cc5ccccc5s4)cc32)[C@H](O)[C@@H](O)[C@@H]1O [Example A47, (1S,3′R,4′S,5′S,6′R)-6′-methyl-6-(benzo[b]thiophene-2-methyl)-5-fluoro-3,4′,5′,6′-tetrahydro-3H-spiro [isobenzofuran-1,2′-pyran]-3′,4′,5′-triol]	19.4 ± 0.5%	50.2 ± 10.8%
C[C@H]1O[C@]2(OCc3cc(F)c(Cc4cc5ccccc5o4)cc32)[C@H](O)[C@@H](O)[C@@H]1O [Example A48, (1S,3′R,4′S,5′S,6′R)-6′-methyl-6-(benzo[b]furan-2-methyl)-5-fluoro-3′,4′,5′,6′-tetrahydro-3H-spiro[isobenzofuran-1,2′-pyran]-3′,4′,5′-triol]	13.1 ± 8.4%	33.2 ± 10.1%
C[C@H]1O[C@]2(OCc3ccc(Cc4ccc(-c5ccccn5)s4)cc32)[C@H](O)[C@@H](O)[C@@H]1O [Example A13, (1S,3′R,4′S,5′S,6′R)-6′-methyl-6-((5-(2-pyridyl)thienyl)-2-methyl)-3′,4′,5′,6′-tetrahydro-3H-spiro[isobenzofuran-1,2′-pyran]-3′,4′,5′-triol]	31 ± 30.5%	46.9 ± 8.6%
C[C@H]1O[C@]2(OCc3ccc(Cc4cc5ccccc5s4)cc32)[C@H](O)[C@@H](O)[C@@H]1O [Example A15, (1S,3′R,4′S,5′S,6′R)-6′-methyl-6-(benzo[b]thiophene-2-methyl)-3′,4′,5′,6′-tetrahydro-3H-spiro[isobenzofuran-1,2′-pyran]-3′,4′,5′-triol]	46.9 ± 4%	50.8 ± 4.4%
COc1ccc(Cc2cc3c(cc2Cl)CO[C@]32O[C@H](C)[C@@H](O)[C@H](O)[C@H]2O)cc1 [Example A25, (1S,3′R,4′S,5′S,6′R)-6′-methyl-6-(4-methoxybenzyl)-5-chloro-3′,4′,5′,6′-tetrahydro-3H-spiro[isobenzofuran-1,2′-pyran]-3′,4′,5′-triol]	91.8 ± 5.1%	101 ± 2.2%
C[C@H]1O[C@]2(OCc3cc(Cl)c(C(=O)c4ccc(C(F)(F)F)cc4)cc32)[C@H](O)[C@@H](O)[C@@H]1O [Example A111, ((1S,3′R,4′S,5′S,6′R)-5-chloro-3′,4′,5′-trihydroxy-6′-methyl-3′,4′,5′,6′-tetrahydro-3H-spiro[isobenzofuran-1,2′-pyran]-6-yl)(4-(trifluoromethyl)phenyl)ketone]	46.2 ± 11.1%	39.9 ± 10.8%
C[C@H]1O[C@]2(OCc3cc(Cl)c(C(=O)c4ccc(C(F)(F)F)c(F)c4)cc32)[C@H](O)[C@@H](O)[C@@H]1O [Example A112, ((1S,3′R,4′S,5′S,6′R)-5-chloro-3′,4′,5′-trihydroxy-6′-methyl-3′,4′,5′,6′-tetrahydro-3H-spiro[isobenzofuran-1,2′-pyran]-6-yl)(3-fluoro-4-(trifluoromethyl)phenyl)ketone]	34.9 ± 23%	44.3 ± 15.6%
CCOc1ccc(Cc2ccc3c(c2)[C@]2(OC3)O[C@H](C)[C@@H](O)[C@H](O)[C@H]2O)cc1 [Example A6, (1S,3′R,4′S,5′S,6′R)-6′-methyl-6-(4-ethyoxylbenzyl)-3′,4′,5′,6′-tetrahydro-3H-spiro[isobenzofuran-1,2′-pyran]-3′,4′,5′-triol]	27 ± 15.7%	27.6 ± 3.1%
C[C@H]1O[C@]2(OCc3cc(F)c(Cc4ccc(-c5ccccn5)s4)cc32)[C@H](O)[C@@H](O)[C@@H]1O [Example A46, (1S,3′R,4′S,5′S,6′R)-6′-methyl-6-((5-(2-pyridyl)thienyl)-2-methyl)-5-fluoro-3′,4′,5′,6′-tetrahydro-3H-spiro[isobenzofuran-1,2′-pyran]-3′,4′,5′-triol]	16 ± 14.8%	63.6 ± 2.4%
CCCc1ccc(Cc2ccc3c(c2)[C@]2(OC3)O[C@H](C)[C@@H](O)[C@H](O)[C@H]2O)cc1 [Example A3, (1S,3′R,4′S,5′S,6′R)-6′-methyl-6-(4-propylbenzyl)-3′,4′,5′,6′-tetrahydro-3H-spiro[isobenzofuran-1,2′-pyran]-3′,4′,5′-triol]	23.1 ± 18.5%	31 ± 9.7%
CC(C)c1ccc(Cc2ccc3c(c2)[C@]2(OC3)O[C@H](C)[C@@H](O)[C@H](O)[C@H]2O)cc1 [Example A4, (1S,3′R,4′S,5′S,6′R)-6′-methyl-6-(4-isopropylbenzyl)-3′,4′,5′,6′-tetrahydro-3H-spiro[isobenzofuran-1,2′-pyran]-3′,4′,5′-triol]	34.1 ± 23.6%	42.2 ± 3.5%
